Laboratory results: patent publication US20220411471A1, “CELL-PERMEABLE CYCLIC PEPTIDES AND USES THEREOF” (Unnatural Products Inc., priority 2019, published 2022)
One block for each molecule: values may come before it. Non-standard residues stand in square brackets, D forms with d. Residues, ends and D or L forms follow the SMILES beside them. ξ: configuration not given here. Ala(4-thiazolyl) = N[C@@H](Cc1cscn1)C(=O)O; NMePhe(4-F) = CN[C@@H](Cc1ccc(F)cc1)C(=O)O; Phe(4-Cl) = N[C@@H](Cc1ccc(Cl)cc1)C(=O)O; Phe(4-F) = N[C@@H](Cc1ccc(F)cc1)C(=O)O; NMeThr(3ξ) = CN[C@H](C(=O)O)C(C)O; NMeF = CN[C@@H](Cc1ccccc1)C(=O)O; Tle = CC(C)(C)[C@H](N)C(=O)O; Pip = O=C(O)[C@@H]1CCCCN1; hSer = N[C@@H](CCO)C(=O)O; NMeA = CN[C@@H](C)C(=O)O; dNMeA = CN[C@H](C)C(=O)O; Nme = COCCNCC(=O)O

Experiments:
Human MDM4 (HDM4) 1-114 = target: T1, Human MDM4 (HDM4) 1-114 (Homo sapiens, UniProt O15151); assay: Fluorescence polarization assay 2, MDM4 (Table 4); format: binding; conditions: Table 4; fluorescence polarization; read-out: MDM4 IC50
T1 construct: Human MDM4 (HDM4) 1-114
T1 sequence (O15151 1-114): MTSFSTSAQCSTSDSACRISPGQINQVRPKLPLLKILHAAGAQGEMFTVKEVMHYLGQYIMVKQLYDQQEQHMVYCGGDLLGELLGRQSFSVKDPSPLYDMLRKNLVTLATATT
Method: Compounds dissolved in DMSO were pin transferred (˜100-200 nL) to the 384 well plate containing the MDM4/p53 solution. After incubation for 60 minutes, the fluorescence polarization was read on a Molecular Devices SpectraMax plate reader equipped with a Fluorescein FP cartridge. In addition to probe alone (positive control) and probe/MDM4 (negative control), a titration of linear p53(18-26) was included on every plate as an additional control. IC50 values were fit using either Prism or Collaborative Drug Discovery.

[1] = Pharmacokinetic parameters of Compound 35, intravenous, mice; format: in vivo; conditions: mouse, 1 mg/kg, plasma
Method: Mice were treated intravenously with Compound 35 (1 mg/kg) and plasma was collected at various timepoints to determine pharmacokinetic parameters. The change in mean plasma concentration over time is shown in FIG. 5, and all pharmacokinetic parameters obtained are summarized in Table 2: […]

Human MDM2 (HDM2) 1-116 = target: T2, Human MDM2 (HDM2) 1-116 (Homo sapiens, UniProt Q00987); assay: Fluorescence polarization assay 2, MDM2 (Table 4); format: binding; conditions: Table 4; fluorescence polarization; read-out: MDM2 IC50
T2 construct: Human MDM2 (HDM2) 1-116
T2 sequence (Q00987 1-116): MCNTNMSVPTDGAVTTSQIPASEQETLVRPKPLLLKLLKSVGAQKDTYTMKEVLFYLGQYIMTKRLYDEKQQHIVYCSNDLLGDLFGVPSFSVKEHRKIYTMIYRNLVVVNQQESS
Method: Compounds dissolved in DMSO were pin transferred (˜100-200 nL) to the 384 well plate containing the MDM2/p53 solution. After incubation for 60 minutes, the fluorescence polarization was read on a Molecular Devices SpectraMax plate reader equipped with a Fluorescein FP cartridge. In addition to probe alone (positive control) and probe/MDM2 (negative control), a titration of linear p53(18-26) was included on every plate as an additional control. IC50 values were fit using either Prism or Collaborative Drug Discovery.

MOLM-13 cells = assay: Cellular fluorescence assay (resazurin, 72 hours); format: cell-based
Method: MOLM-13 cells were grown in suspension in T75 flasks in RPMI medium with 10% fetal bovine serum (FBS) at 37° C. with 5% CO2. 40 μL of MOLM-13 cells were plated into columns 1-22 of black, clear bottom, 384 well plates at a density of 1,500 cells per well in PRMI with 10% FBS. Columns 23 and 24 were filled with 40 μL of media as a positive control. 100 nL of compounds dissolved in DMSO were pin transferred into columns 3-22 of the 384 well plate. Columns 1 and 2 served as negative control wells. Plates were incubated for 72 hours at 37° C. with 5% CO2. After incubation, the cells were given 10 μL of 2 mM Resazurin in RPMI with 10% FBS and incubated for 3 hours. The fluorescence intensity was read on a Molecular Devices SpectraMax i3x plate reader (Excitation wavelength=535 nm, Emission wavelength=585 nm).

IC50 (Human MDM4 (HDM4) 1-114): > 150 nM | AUC(0-inf) [1]: 1040 ng·h/mL | AUC(0-t) [1]: 1040 ng·h/mL | Cmax [1]: 3570 ng/mL | MRT inf [1]: 9 min | MRT last [1]: 7.8 min | Tmax [1]: 4.8 min | clearance [1]: 16 mL/min/kg | half-life [1]: 62.4 min | Vd ([1]; read-out: Vss): 0.14 L/kg | IC50 (Human MDM2 (HDM2) 1-116): 50 to 100 nM
SMILES: COCC[C@@H]1NC(=O)[C@H]2CCCN2C(=O)[C@H](Cc2ccccc2)N(C)C(=O)[C@H](Cc2ccc(Cl)cc2)NC(=O)[C@H](C(C)(C)C)NC(=O)[C@H](Cc2ccc(F)cc2)NC(=O)CN(CCOC)C(=O)[C@@H](C)N(C)C(=O)[C@H](Cc2cscn2)NC(=O)[C@H](C)N(C)C1=O [Compound 35, COCC[C@@H]1NC(=O)[C@H]2CCCN2C(=O)[C@H](CC2=CC=CC=C2)N(C)C(=O)[C@H](CC2=CC=C(Cl)C=C2)NC(=O)[C@@H](NC(=O)[C@H](CC2=CC=C(F)C=C2)NC(=O)CN(CCOC)C(=O)[C@@H](C)N(C)C(=O)[C@H](CC2=CSC=N2)NC(=O)[C@H](C)N(C)C1=O)C(C)(C)C] (cyclo([Ala(4-thiazolyl)][dNMeA][Nme][Phe(4-F)][Tle][Phe(4-Cl)][NMeF][dP][hSer](Me)[NMeA]))

IC50 (Human MDM4 (HDM4) 1-114): 50 to 100 nM | IC50 (Human MDM2 (HDM2) 1-116): < 25 nM
SMILES: COCC[C@@H]1NC(=O)[C@H]2CCCN2C(=O)[C@H](Cc2ccccc2)N(C)C(=O)[C@H](Cc2ccc(Cl)cc2)NC(=O)[C@H](C(C)(C)C)NC(=O)[C@H](Cc2ccc(F)cc2)NC(=O)[C@H](C)N(C)C(=O)[C@@H](C)N(C)C(=O)[C@H](Cc2cscn2)NC(=O)[C@H](C)N(C)C1=O [Compound 36, COCC[C@@H]1NC(=O)[C@H]2CCCN2C(=O)[C@H](Cc2ccccc2)N(C)C(=O)[C@H](Cc2ccc(Cl)cc2)NC(=O)[C@@H](NC(=O)[C@H](Cc2ccc(F)cc2)NC(=O)[C@H](C)N(C)C(=O)[C@@H](C)N(C)C(=O)[C@H](CC2=CSC=N2)NC(=O)[C@H](C)N(C)C1=O)C(C)(C)C] (cyclo([Ala(4-thiazolyl)][dNMeA][NMeA][Phe(4-F)][Tle][Phe(4-Cl)][NMeF][dP][hSer](Me)[NMeA]))

IC50 (Human MDM4 (HDM4) 1-114): > 150 nM | IC50 (Human MDM2 (HDM2) 1-116): 25 to 50 nM
SMILES: COCC[C@@H]1NC(=O)[C@H]2CCCN2C(=O)[C@H](Cc2ccccc2)N(C)C(=O)[C@H](Cc2ccc(Cl)cc2)NC(=O)[C@H](C)N(C)C(=O)[C@H](Cc2ccc(F)cc2)NC(=O)[C@H](C)N(C)C(=O)[C@@H](C)N(C)C(=O)[C@H](Cc2cscn2)NC(=O)[C@H](C)N(C)C1=O [Compound 34, COCC[C@@H]1NC(=O)[C@H]2CCCN2C(=O)[C@H](CC2=CC=CC=C2)N(C)C(=O)[C@H](CC2=CC=C(Cl)C=C2)NC(=O)[C@H](C)N(C)C(=O)[C@H](CC2=CC=C(F)C=C2)NC(=O)[C@H](C)N(C)C(=O)[C@@H](C)N(C)C(=O)C@H](CC2=CSC=N2)NC(=O)[C@H](C)N(C)C1=O] (cyclo([Ala(4-thiazolyl)][dNMeA][NMeA][Phe(4-F)][NMeA][Phe(4-Cl)][NMeF][dP][hSer](Me)[NMeA]))

IC50 (Human MDM4 (HDM4) 1-114): > 150 nM | IC50 (Human MDM2 (HDM2) 1-116): 25 to 50 nM
SMILES: COCC[C@@H]1NC(=O)[C@H]2CCCN2C(=O)[C@H](Cc2ccccc2)N(C)C(=O)[C@H](Cc2ccc(Cl)cc2)NC(=O)[C@H](C)N(C)C(=O)[C@H](Cc2ccc(F)cc2)NC(=O)CN(CCOC)C(=O)[C@@H](C)N(C)C(=O)[C@H](Cc2cscn2)NC(=O)[C@H](C)N(C)C1=O [Compound 40, COCC[C@@H]1NC(=O)[C@H]2CCCN2C(=O)[C@H](CC2=CC=CC=C2)N(C)C(=O)[C@H](CC2=CC=C(Cl)C=C2)NC(=O)[C@H](C)N(C)C(=O)[C@H](CC2=CC=C(F)C=C2)NC(=O)CN(CCOC)C(=O)[C@@H](C)N(C)C(=O)[C@H](CC2=CSC=N2)NC(=O)[C@H](C)N(C)C1=O] (cyclo([Ala(4-thiazolyl)][dNMeA][Nme][Phe(4-F)][NMeA][Phe(4-Cl)][NMeF][dP][hSer](Me)[NMeA]))

IC50 (Human MDM4 (HDM4) 1-114): < 50 nM | IC50 (Human MDM2 (HDM2) 1-116): < 25 nM
SMILES: COCC[C@@H]1NC(=O)[C@H]2CCCN2C(=O)[C@H](Cc2ccccc2)N(C)C(=O)[C@H](Cc2ccc(Cl)cc2)NC(=O)[C@H](C(C)C)NC(=O)[C@H](Cc2ccc(F)cc2)NC(=O)CN(CCOC)C(=O)[C@@H](C)N(C)C(=O)[C@H](Cc2cscn2)NC(=O)[C@H](C)N(C)C1=O [Compound 41, COCC[C@@H]1NC(=O)[C@H]2CCCN2C(=O)[C@H](CC2=CC=CC=C2)N(C)C(=O)[C@H](CC2=CC=C(Cl)C=C2)NC(=O)[C@@H](NC(=O)[C@H](CC2=CC=C(F)C=C2)NC(=O)CN(CCOC)C(=O)[C@@H](C)N(C)C(=O)[C@H](CC2=CSC=N2)NC(=O)[C@H](C)N(C)C1=O)C(C)C] (cyclo([Ala(4-thiazolyl)][dNMeA][Nme][Phe(4-F)]V[Phe(4-Cl)][NMeF][dP][hSer](Me)[NMeA]))

Second part, the molecule before the results:

SMILES: COCC[C@@H]1NC(=O)[C@H]2CCCN2C(=O)[C@H](Cc2ccc(F)cc2)N(C)C(=O)[C@H](Cc2ccc(Cl)cc2)NC(=O)[C@H](C(C)O)N(C)C(=O)[C@H](Cc2ccc(F)cc2)NC(=O)CN(CCOC)C(=O)[C@@H](C)N(C)C(=O)[C@H](Cc2cscn2)NC(=O)[C@H](C)N(C)C1=O (stereo partly shown) [Compound 45, COCC[C@@H]1NC(=O)[C@H]2CCCN2C(=O)[C@H](Cc2ccc(F)cc2)N(C)C(=O)[C@H](Cc2ccc(Cl)cc2)NC(=O)[C@H]([C@@@H](C)O)N(C)C(=O)[C@H](Cc2ccc(F)cc2)NC(=O)CN(CCOC)C(=O)[C@@H](C)N(C)C(=O)[C@H](Cc2cscn2)NC(=O)[C@H](C)N(C)C1=O] (cyclo([Ala(4-thiazolyl)][dNMeA][Nme][Phe(4-F)][NMeThr(3ξ)][Phe(4-Cl)][NMePhe(4-F)][dP][hSer](Me)[NMeA]))
IC50 (MOLM-13 cells): 50 to 100 nM

SMILES: COCC[C@@H]1NC(=O)[C@H]2CCCN2C(=O)[C@H](Cc2ccccc2)N(C)C(=O)[C@H](Cc2ccc(Cl)cc2)NC(=O)[C@H](C(C)(C)C)NC(=O)[C@H](Cc2ccc(F)cc2)NC(=O)CN(CCOC)C(=O)[C@@H](C)N(C)C(=O)[C@H](Cc2ccc(O)cc2)NC(=O)[C@H](C)N(C)C1=O [Compound 32, [H]Oc1ccc(C[C@@H]2NC(=O)[C@H](C)N(C)C(=O)[C@H](CCOC)NC(=O)[C@H]3CCCN3C(=O)[C@H](Cc3ccccc3)N(C)C(=O)[C@H](Cc3ccc(Cl)cc3)NC(=O)[C@@H](NC(=O)[C@H](Cc3ccc(F)cc3)NC(=O)CN(CCOC)C(=O)[C@@H](C)N(C)C2=O)C(C)(C)C)cc1] (cyclo([NMeA]Y[dNMeA][Nme][Phe(4-F)][Tle][Phe(4-Cl)][NMeF][dP][hSer](Me)))
IC50 (Human MDM4 (HDM4) 1-114): > 150 nM | IC50 (Human MDM2 (HDM2) 1-116): < 25 nM

SMILES: COCC[C@@H]1NC(=O)[C@H]2CCCN2C(=O)[C@H](Cc2ccccc2)N(C)C(=O)[C@H](Cc2ccc(Cl)cc2)NC(=O)[C@H]([C@@H](C)O)NC(=O)[C@H](Cc2ccc(F)cc2)NC(=O)CN(CCOC)C(=O)[C@@H](C)N(C)C(=O)[C@H](Cc2cscn2)NC(=O)[C@H](C)N(C)C1=O [Compound 39, COCC[C@@H]1NC(=O)[C@H]2CCCN2C(=O)[C@H](CC2=CC=CC=C2)N(C)C(=O)[C@H](CC2=CC=C(Cl)C=C2)NC(=O)[C@@H](NC(=O)[C@H](CC2=CC=C(F)C=C2)NC(=O)CN(CCOC)C(=O)[C@@H](C)N(C)C(=O)[C@H](CC2=CSC=N2)NC(=O)[C@H](C)N(C)C1=O)C(C)O] (cyclo([hSer](Me)[NMeA][Ala(4-thiazolyl)][dNMeA][Nme][Phe(4-F)]T[Phe(4-Cl)][NMeF][dP]))
IC50 (MOLM-13 cells): 100 to 150 nM

SMILES: COCC[C@@H]1NC(=O)[C@H]2CCCN2C(=O)[C@H](Cc2ccc(F)cc2)N(C)C(=O)[C@H](Cc2ccc(Cl)cc2)NC(=O)[C@@H]2CCCCN2C(=O)[C@H](Cc2ccc(F)cc2)NC(=O)CN(CCOC)C(=O)[C@@H](C)N(C)C(=O)[C@H](Cc2cscn2)NC(=O)[C@H](C)N(C)C1=O [Compound 46, COCC[C@@H]1NC(=O)[C@H]2CCCN2C(=O)[C@H](Cc2ccc(F)cc2)N(C)C(=O)[C@H](Cc2ccc(Cl)cc2)NC(=O)[C@@H]2CCCCN2C(=O)[C@H](Cc2ccc(F)cc2)NC(=O)CN(CCOC)C(=O)[C@@H](C)N(C)C(=O)[C@H](Cc2cscn2)NC(=O)[C@H](C)N(C)C1=O] (cyclo([Ala(4-thiazolyl)][dNMeA][Nme][Phe(4-F)][Pip][Phe(4-Cl)][NMePhe(4-F)][dP][hSer](Me)[NMeA]))
IC50 (Human MDM4 (HDM4) 1-114): 100 to 150 nM | IC50 (Human MDM2 (HDM2) 1-116): 50 to 100 nM
